Values joined by “and” are separate entries in the source; they are usually repeats but may differ in a detail not shown here. Identical values can stand only once. Marks after values point to notes of the source that are not given here.
Key:
[1] = Thermodynamic analysis experiment (heating, XRPD); format: physicochemical; details: compared with crystalline form H and crystalline form S
Description: Crystalline form H and crystalline form S were heated to appropriate temperatures under N2 protection, and after cooling to room temperature, the XRPD of the solids was measured.

[2] = Suspension competition experiment; format: physicochemical; details: compared with crystalline form O and crystalline form P; room temperature and 60° C.
Description: Place them at room temperature and 60° C. with magnetic stirring for about 1 hour respectively. […] Solids are used for XRPD testing.

[3] = tested on: atopic dermatitis animal model; test: Atopic dermatitis animal model (dinitrochlorobenzene induced); format: in vivo, BALB/C mice; details: for Inhibition rate of auricular thickening / Inhibition rate of skin thickening: 10th day of treatment
Text: BALB/C mice, 55 pieces, female, were 6 weeks old at the time of purchase and 8 weeks old at the time of experiment, weighing 18 g-20 g. The animals were from Shanghai Lingchang Biotechnology Co, Ltd (SCXK (Shanghai) 2018-0003), experimental animal production certificate number 20180003012342: experimental animal use license number; SYXK(Shanghai)2020-0001 (Via Biotechnology (Shanghai) Ltd.).
Modeling and administration method; Use depilatory cream to remove the hair of an area of about 5 cm×2 cm from the top of the head to the back of each animal. The application time of the depilatory cream should be controlled within 2 minutes. Wash the depilated area with warm water and wash off the depilatory agent, immediately use a hair dryer to dry the animal's hair, and place the animal on a 37° C. constant-temperature electric blanket for 1 h-2 h. After the animal moves freely, place it in a breeding cage and recover for 1 day (if the animal's skin is red, swollen and damaged after hair removal, it will its elimination). On the second day, 42 animals with normal skin were selected and randomly divided into groups according to body weight, with 6 animals in each group, totaling 7 groups. Except for the G1 normal control group, each animal in the other groups was evenly smeared with 200 μL of 0.5 wt % dinitrochlorobenzene solution (the solvent was acetone and olive oil with a mass ratio of 3:1) on the back and auricle for three consecutive days every day. Induction (the first stage of induction), the second stage of induction started after 14 days, and was induced with 1 wt % dinitrochlorobenzene solution (the solvent was acetone and olive oil with a mass ratio of 3:1) every three days until the end of the experiment, start treatment and administration at the same time, and group administration is shown in Table 6.
Skin thickness (double layer): Use a vernier caliper to measure the double layer thickness of the back skin on the 1 day before modeling, and on the 14th, 17th, 20th, 23rd, 26th, and 28th days after modeling.
Auricle thickness: Use a vernier caliper to measure the thickness of the right auricle 1 day before modeling, and on days 14, 17, 20, 23, 26, and 28 after modeling.
AD-SI score: The condition score refers to the clinical SI scoring standard, and scores three indicators: skin color/erythema, scaly erythema, scaly/peeling/lichenification, thickening, and thickening/edema degree. The total score is 12 points. Scoring standard as follows:
Erythema/skin color: 0 points, none; 1 points, slight: light red; 2 points, moderate: red; 3 points, significant: dark red; 4 points, very obvious: extremely deep red.
Scaling/peeling/lichenification: 0 points, none; 1 point, slight: there are scales/peeling/lichenification on part of the epidermis, mainly subtle; 2 points, moderate: most of the skin surface is completely or incompletely covered with Scaling/peeling/lichenification, flaky; 3 points, significant: almost all skin is covered with scales/peeling/lichenification, and the scales/peeling/lichenification are thick and layered; 4 points, very obvious: all skin is covered with Scaling/peeling/lichenification, very thick and layered.
Thickening/edema: 0 points, none: flush with normal skin; 1 points, slight: slightly higher than the normal skin surface: 2 points, moderate: moderately raised, with round or sloped plaque edges: 3 points, obvious Score: The plaque is hypertrophic and the bulge is obvious; 4 points, very significant: it is highly thickened and the bulge is very obvious. Skin/auricle hyperplasia inhibition rate (%)=1−[(skin/auricle thickness of the treatment group−skin/auricle thickness of the blank control group)/skin/auricle thickness of the negative control group−skin/auricle of the blank control group thickness)]%.
All data are expressed as Mean±SD or Mean±SEM. Use the statistical analysis software SPSS23.0 to conduct normal distribution and homogeneity of variance tests on the data. […]

[4] = 3 mg/kg oral twice a day, Day 0
[5] = 3 mg/kg oral twice a day, Day 1
[6] = 3 mg/kg oral twice a day, Day 4
[7] = 3 mg/kg oral twice a day, Day 7
[8] = 3 mg/kg oral twice a day, Day 10
[9] = 10 mg/kg oral twice a day, listed as crystalline form A
[10] = 10 mg/kg oral twice a day, Day 0
[11] = 10 mg/kg oral twice a day, Day 1
[12] = 10 mg/kg oral twice a day, Day 4
[13] = 10 mg/kg oral twice a day, Day 7
[14] = 10 mg/kg oral twice a day, Day 10
[15] = 10 mg/kg oral twice a day, Day 10, listed as crystalline form A
[16] = 30 mg/kg oral twice a day, listed as crystalline form A
[17] = 30 mg/kg oral twice a day, Day 0
[18] = 30 mg/kg oral twice a day, Day 1
[19] = 30 mg/kg oral twice a day, Day 4
[20] = 30 mg/kg oral twice a day, Day 7
[21] = 30 mg/kg oral twice a day, Day 10
[22] = 30 mg/kg oral twice a day, Day 10, listed as crystalline form A

## C[C@@H](O)c1nc2cnc3[nH]ccc3c2n1N1CCC(CC#N)CC1 [Crystalline form A, (R)-2-(1-(2-(1-hydroxyethyl)imidazo[4,5-d]pyrrolo[2,3-b]pyridine-1(6H)-yl)piperidin-4-yl)acetonitrile]
[1]
  thermodynamic stability: thermodynamically more stable
[2]
  stability in suspension competition: more stable
[3]; 3 mg/kg oral twice a day
  Inhibition rate of auricular thickening: 37.93%
  Inhibition rate of skin thickening: 14.43%
[3]; [4]
  AD-SI score: 0.00 points
  Average auricle thickness: 0.20 ± 0.00 mm
  Average skin thickness (double layer): 0.63 ± 0.01 mm
[3]; [5]
  AD-SI score: 0.00 points
  Average auricle thickness: 0.22 ± 0.01 mm
  Average skin thickness (double layer): 0.98 ± 0.01 mm
[3]; [6]
  AD-SI score: 1.00 ± 0.00 points
  Average auricle thickness: 0.30 ± 0.01 mm
  Average skin thickness (double layer): 1.08 ± 0.01 mm
[3]; [7]
  AD-SI score: 6.50 ± 1.05 points
  Average auricle thickness: 0.39 ± 0.03 mm
  Average skin thickness (double layer): 1.85 ± 0.12 mm
[3]; [8]
  AD-SI score: 5.83 ± 0.75 points
  Average auricle thickness: 0.57 ± 0.04 mm and 0.57 mm
  Average skin thickness (double layer): 2.35 ± 0.15 mm and 2.35 mm
[3]; 10 mg/kg oral twice a day
  Inhibition rate of auricular thickening: 43.10%
  Inhibition rate of skin thickening: 20.40%
[3]; [9]
  Inhibition rate of auricular thickening: 43.1%
  Inhibition rate of skin thickening: 20.4%
[3]; [10]
  AD-SI score: 0.00 points
  Average auricle thickness: 0.20 ± 0.01 mm
  Average skin thickness (double layer): 0.60 ± 0.02 mm
[3]; [11]
  AD-SI score: 0.00 points
  Average auricle thickness: 0.23 ± 0.01 mm
  Average skin thickness (double layer): 0.94 ± 0.02 mm
[3]; [12]
  AD-SI score: 0.50 ± 0.55 points
  Average auricle thickness: 0.32 ± 0.01**^ mm
  Average skin thickness (double layer): 1.14 ± 0.04 mm
[3]; [13]
  AD-SI score: 5.83 ± 1.17 points
  Average auricle thickness: 0.43 ± 0.03 mm
  Average skin thickness (double layer): 1.49 ± 0.09 mm
[3]; [14]
  AD-SI score: 4.67 ± 0.52 points
  Average auricle thickness: 0.54 ± 0.07 mm and 0.54 mm
  Average skin thickness (double layer): 2.23 ± 0.17 mm and 2.23 mm
[3]; [15]
  AD-SI score: 4.67 points
  Average auricle thickness: 0.54 mm
  Average skin thickness (double layer): 2.23 mm
[3]; 30 mg/kg oral twice a day
  Inhibition rate of auricular thickening: 50.00%
  Inhibition rate of skin thickening: 53.73%
[3]; [16]
  Inhibition rate of auricular thickening: 50%
  Inhibition rate of skin thickening: 53.73%
[3]; [17]
  AD-SI score: 0.00 points
  Average auricle thickness: 0.21 ± 0.01 mm
  Average skin thickness (double layer): 0.62 ± 0.02 mm
[3]; [18]
  AD-SI score: 0.00 points
  Average auricle thickness: 0.22 ± 0.01 mm
  Average skin thickness (double layer): 0.79 ± 0.05 mm
[3]; [19]
  AD-SI score: 0.50 ± 0.55 points
  Average auricle thickness: 0.29 ± 0.02 mm
  Average skin thickness (double layer): 1.05 ± 0.03 mm
[3]; [20]
  AD-SI score: 3.00 ± 2.19 points
  Average auricle thickness: 0.32 ± 0.01 mm
  Average skin thickness (double layer): 1.01 ± 0.08 mm
[3]; [21]
  AD-SI score: 3.50 ± 1.39 points
  Average auricle thickness: 0.50 ± 0.03 mm and 0.50 mm
  Average skin thickness (double layer): 1.56 ± 0.21 mm and 1.56 mm
[3]; [22]
  AD-SI score: 3.5 points
  Average auricle thickness: 0.5 mm
  Average skin thickness (double layer): 1.56 mm
